Results reported in patent US11667602B2, “Compounds and their use” (AstraZeneca AB, priority 2020, dated 2023).
pEC50: −log10 of the molar value. Converted amounts (≈) assume the structure as drawn. Where two headings read alike, the source gives them in different places.

Legend:
[1] = Human Liver Microsomal Stability (Test C); format: in vitro ADME
How it was run: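 Human liver microsome incubation per the Wernevik et al. integrated DMPK panel protocol. Intrinsic clearance reported as CLint in μl/min/mg protein, averaged arithmetically over repeat runs.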

[2] = Rat Hepatocyte Stability (Test E); format: in vitro ADME; settings: geometric mean if run multiple times
How it was run: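 Run per the published AstraZeneca-type rat hepatocyte stability protocol (Wernevik et al. panel). Values are mean intrinsic clearance, Clint in μl/min/10^6 cells; geometric mean used for repeated runs.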

human RXFP1 = target: T1, human RXFP1 (Homo sapiens, UniProt Q9HBX9); test: RXFP1 Hu cAMP (Test A); format: cell-based; set-up: expressed in transfected cells; host or cells: Jump-In T-REx CHO-K1 cells (ThermoFisher), induced with 10 ng/ml doxycycline for 24 h
T1 sequence (Q9HBX9 1-757): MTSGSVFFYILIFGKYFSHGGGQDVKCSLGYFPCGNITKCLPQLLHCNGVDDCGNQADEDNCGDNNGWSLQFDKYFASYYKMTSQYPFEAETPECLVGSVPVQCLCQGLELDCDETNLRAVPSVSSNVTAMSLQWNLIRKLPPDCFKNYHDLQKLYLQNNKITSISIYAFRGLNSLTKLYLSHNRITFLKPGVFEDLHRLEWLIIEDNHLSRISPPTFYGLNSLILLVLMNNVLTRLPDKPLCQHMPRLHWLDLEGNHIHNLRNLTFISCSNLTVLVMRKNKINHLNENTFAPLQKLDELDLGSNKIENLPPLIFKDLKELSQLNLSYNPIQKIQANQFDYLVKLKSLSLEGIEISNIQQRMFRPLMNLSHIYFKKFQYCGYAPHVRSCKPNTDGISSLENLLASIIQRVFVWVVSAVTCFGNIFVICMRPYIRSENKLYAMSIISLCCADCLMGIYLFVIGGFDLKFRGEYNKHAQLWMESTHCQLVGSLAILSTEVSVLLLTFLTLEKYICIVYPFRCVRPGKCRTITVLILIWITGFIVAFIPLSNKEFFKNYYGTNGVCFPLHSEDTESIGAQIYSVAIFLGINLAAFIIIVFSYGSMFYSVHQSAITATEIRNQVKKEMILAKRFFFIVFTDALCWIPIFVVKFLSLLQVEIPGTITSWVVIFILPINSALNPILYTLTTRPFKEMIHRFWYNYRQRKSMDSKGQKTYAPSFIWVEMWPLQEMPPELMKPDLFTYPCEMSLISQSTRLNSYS
How it was run: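 CHO-K1 (Jump-In T-REx), RXFP1 induced w/ 10 ng/ml doxycycline 24 h, cryopreserved. 0.5 mM IBMX final. cAMP by HTRF, 2 h RT, std curve.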

Solubility (Test F) = format: physicochemical; settings: arithmetic mean if run multiple times
Method: The assay was conducted according to the Solubility Assay described in pages 164-167 of Wernevik, J. et al., “A Fully Integrated Assay Panel for Early Drug Metabolism and Pharmacokinetics Profiling”, Assay and Drug Development Technologies, 2020, 18(4), 157-179. Data are reported in Table 36 as solubility ([…]. Where the assay was run multiple times for the same compound, the arithmetic mean is reported.

[3] = Human Plasma Protein Binding (Test B); format: in vitro ADME; settings: fraction unbound (fu)
How it was run: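 Human plasma protein binding run per the published Wernevik et al. (2020) integrated DMPK panel protocol. Values are fraction unbound (fu, % free); repeat runs averaged arithmetically.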

[4] = RXFP1 Hu cAMP, read-out: Test A EC50

| Compound | microsomal CLint ([1]; human, liver microsomes) | hepatocyte CLint ([2]; rat, hepatocytes) | Test A Sinf (human RXFP1; RXFP1 Hu cAMP) | solubility (Solubility (Test F)) | Test B Human Plasma Protein Binding (% free) [3] | pEC50 (human RXFP1; [4]) | microsomal CLint ([1]; human liver microsomes) | hepatocyte CLint ([2]; rat hepatocytes) | pEC50 (human RXFP1; Test A EC50, RXFP1 Hu cAMP) |
| --- | --- | --- | --- | --- | --- | --- | --- | --- | --- |
| COc1cc(F)c(O[C@H]2CC[C@@H](C(=O)O)CC2)cc1C(=O)N[C@@H]1[C@H]2CC[C@H](C2)[C@@H]1C(=O)Nc1cccc(OC(F)(F)F)c1F [Example 18] | 27 µL/min/mg | 49 µL/min/1e6 cells | 105% | 400 µM (≈ 251 µg/mL) | 1.2 % free | – | – | – | – |
| COc1cc(F)c(O[C@H]2CC[C@@H](C(=O)O)CC2)cc1C(=O)N[C@@H]1[C@H]2CC[C@H](C2)[C@@H]1C(=O)Nc1ccc(C)c(C#N)c1 [Example 19] | 17 µL/min/mg | 93 µL/min/1e6 cells | 97% | 630 µM (≈ 355 µg/mL) | 2.3 % free | 6.33 | – | – | – |
| COc1cc(F)c(O[C@H]2CC[C@@H](C(=O)O)CC2)cc1C(=O)N[C@@H]1[C@H]2CC[C@H](C2)[C@@H]1C(=O)Nc1cccc(OC(F)(F)F)c1 [Example 20] | 28 µL/min/mg | 63 µL/min/1e6 cells | 102% | 980 µM (≈ 596 µg/mL) | 0.74 % free | 7.32 | – | – | – |
| COc1cc(F)c(O[C@H]2CC[C@@H](C(=O)O)CC2)cc1C(=O)N[C@@H]1[C@H]2CC[C@H](C2)[C@@H]1C(=O)Nc1ccc(F)c(OC(F)(F)F)c1 [Example 21] | 39 µL/min/mg | 28 µL/min/1e6 cells | 110% | 850 µM (≈ 533 µg/mL) | 0.55 % free | – | – | – | – |
| COc1cc(F)c(O[C@H]2CC[C@@H](C(=O)O)CC2)cc1C(=O)N[C@@H]1[C@H]2CC[C@H](C2)[C@@H]1C(=O)Nc1cc(C(F)(F)F)cc(C(F)(F)F)c1 [Example 22, (1S,4s)-4-(5-(((1S,2R,3S,4R)-3-((3,5-Bis(trifluoromethyl)phenyl)carbamoyl)bicyclo[2.2.1]heptan-2-yl)carbamoyl)-2-fluoro-4-methoxyphenoxy)cyclohexane-1-carboxylic acid] | 23 µL/min/mg | 14 µL/min/1e6 cells | 130% | 51 µM (≈ 33.7 µg/mL) | 0.23 % free | – | – | – | – |
| COc1cc(F)c(O[C@H]2CC[C@@H](C(=O)O)CC2)cc1C(=O)N[C@@H]1[C@H]2CC[C@H](C2)[C@@H]1C(=O)Nc1ccc(Br)c(C(F)(F)F)c1 [Example 23] | 26 µL/min/mg | 19 µL/min/1e6 cells | 109% | 8.7 µM (≈ 5.84 µg/mL) | 0.24 % free | 7.70 | – | – | – |
| COc1cc(F)c(O[C@H]2CC[C@@H](C(=O)O)CC2)cc1C(=O)N[C@@H]1[C@H]2CC[C@H](C2)[C@@H]1C(=O)Nc1cccc(C(F)(F)F)c1C [Example 24] | 29 µL/min/mg | 45 µL/min/1e6 cells | 97% | 590 µM (≈ 358 µg/mL) | 1.8 % free | 6.00 | – | – | – |
| COc1cc(F)c(O[C@H]2CC[C@@H](C(=O)O)CC2)cc1C(=O)N[C@@H]1[C@H]2CC[C@H](C2)[C@@H]1C(=O)Nc1cccc(Cl)c1 [Example 25] | 31 µL/min/mg | 130 µL/min/1e6 cells | 102% | 440 µM (≈ 246 µg/mL) | 0.59 % free | 6.38 | – | – | – |
| COc1cc(F)c(O[C@H]2CC[C@@H](C(=O)O)CC2)cc1C(=O)N[C@@H]1[C@H]2CC[C@H](C2)[C@@H]1C(=O)Nc1ccc(C#N)c(Br)c1 [Example 27, (1S,4s)-4-(5-(((1S,2R,3S,4R)-3-((3-Bromo-4-cyanophenyl)carbamoyl)bicyclo[2.2.1]heptan-2-yl)carbamoyl)-2-fluoro-4-methoxyphenoxy)cyclohexane-1-carboxylic acid] | 29 µL/min/mg | > 300 µL/min/1e6 cells | 88% | 990 µM (≈ 622 µg/mL) | 0.40 % free | 6.89 | – | – | – |
| COc1cc(F)c(O[C@H]2CC[C@@H](C(=O)O)CC2)cc1C(=O)N[C@@H]1[C@H]2CC[C@H](C2)[C@@H]1C(=O)Nc1ccc(C#N)c(C(F)(F)F)c1 [Example 28] | – | – | 96% | 690 µM (≈ 426 µg/mL) | 0.94 % free | – | 32 µL/min/mg | 51 µL/min/1e6 cells | 7.36 |
| COc1cc(F)c(O[C@H]2CC[C@@H](C(=O)O)CC2)cc1C(=O)N[C@@H]1[C@H]2CC[C@H](C2)[C@@H]1C(=O)Nc1cc(F)cc(C(F)(F)F)c1 [Example 29] | 22 µL/min/mg | 22 µL/min/1e6 cells | 111% | 130 µM (≈ 79.4 µg/mL) | 0.72 % free | 6.96 | – | – | – |
| COc1cc(F)c(O[C@H]2CC[C@@H](C(=O)O)CC2)cc1C(=O)N[C@@H]1[C@H]2CC[C@H](C2)[C@@H]1C(=O)Nc1cc(Cl)cnn1 [Example 30, (1S,4s)-4-(5-(((1S,2R,3S,4R)-3-((5-Chloropyridazin-3-yl)carbamoyl)bicyclo[2.2.1]heptan-2-yl)carbamoyl)-2-fluoro-4-methoxyphenoxy)cyclohexane-1-carboxylic acid] | < 3 µL/min/mg | 18 µL/min/1e6 cells | – | > 1000 µM | 3.6 % free | < 4.40 | – | – | – |
| COc1cc(F)c(O[C@H]2CC[C@@H](C(=O)O)CC2)cc1C(=O)N[C@@H]1[C@H]2CC[C@H](C2)[C@@H]1C(=O)Nc1cc(C(F)(F)F)ncn1 [Example 31] | 18 µL/min/mg | 13 µL/min/1e6 cells | 81% | 940 µM (≈ 559 µg/mL) | 3.7 % free | 6.12 | – | – | – |
| COc1cc(F)c(O[C@H]2CC[C@@H](C(=O)O)CC2)cc1C(=O)N[C@@H]1[C@H]2CC[C@H](C2)[C@@H]1C(=O)Nc1nccc(C(F)(F)F)n1 [Example 32] | 10 µL/min/mg | 26 µL/min/1e6 cells | 100% | > 1000 µM | 13 % free | < 4.40 | – | – | – |
| COc1cc(F)c(O[C@H]2CC[C@@H](C(=O)O)CC2)cc1C(=O)N[C@@H]1[C@H]2CC[C@H](C2)[C@@H]1C(=O)NC1CC(F)(F)C1 [Example 33, (1S,4s)-4-(5-(((1S,2R,3S,4R)-3-((3,3-Difluorocyclobutyl)carbamoyl)bicyclo[2.2.1]heptan-2-yl)carbamoyl)-2-fluoro-4-methoxyphenoxy)cyclohexane-1-carboxylic acid] | < 3 µL/min/mg | 110 µL/min/1e6 cells | 88% | > 1000 µM | 15 % free | < 5.30 | – | – | – |
